According to ChEMBL document CHEMBL3991601, “The target landscape of clinical kinase drugs” (Science, 2017):
Active and inactive are the calls of the source.

Legend:
[1] = target: Activated CDC42 kinase 1 (Homo sapiens, UniProt Q07912)
[2] = target: Dual specificity testis-specific protein kinase 1 (Homo sapiens, UniProt Q15569)
[3] = target: Casein kinase I isoform epsilon (Homo sapiens, UniProt P49674)
[4] = target: RAC-alpha serine/threonine-protein kinase (Homo sapiens, UniProt P31749)
[5] = target: Tyrosine-protein kinase JAK1 (Homo sapiens, UniProt P23458)
Tyrosine-protein kinase JAK1, sequence (P23458 whole entry): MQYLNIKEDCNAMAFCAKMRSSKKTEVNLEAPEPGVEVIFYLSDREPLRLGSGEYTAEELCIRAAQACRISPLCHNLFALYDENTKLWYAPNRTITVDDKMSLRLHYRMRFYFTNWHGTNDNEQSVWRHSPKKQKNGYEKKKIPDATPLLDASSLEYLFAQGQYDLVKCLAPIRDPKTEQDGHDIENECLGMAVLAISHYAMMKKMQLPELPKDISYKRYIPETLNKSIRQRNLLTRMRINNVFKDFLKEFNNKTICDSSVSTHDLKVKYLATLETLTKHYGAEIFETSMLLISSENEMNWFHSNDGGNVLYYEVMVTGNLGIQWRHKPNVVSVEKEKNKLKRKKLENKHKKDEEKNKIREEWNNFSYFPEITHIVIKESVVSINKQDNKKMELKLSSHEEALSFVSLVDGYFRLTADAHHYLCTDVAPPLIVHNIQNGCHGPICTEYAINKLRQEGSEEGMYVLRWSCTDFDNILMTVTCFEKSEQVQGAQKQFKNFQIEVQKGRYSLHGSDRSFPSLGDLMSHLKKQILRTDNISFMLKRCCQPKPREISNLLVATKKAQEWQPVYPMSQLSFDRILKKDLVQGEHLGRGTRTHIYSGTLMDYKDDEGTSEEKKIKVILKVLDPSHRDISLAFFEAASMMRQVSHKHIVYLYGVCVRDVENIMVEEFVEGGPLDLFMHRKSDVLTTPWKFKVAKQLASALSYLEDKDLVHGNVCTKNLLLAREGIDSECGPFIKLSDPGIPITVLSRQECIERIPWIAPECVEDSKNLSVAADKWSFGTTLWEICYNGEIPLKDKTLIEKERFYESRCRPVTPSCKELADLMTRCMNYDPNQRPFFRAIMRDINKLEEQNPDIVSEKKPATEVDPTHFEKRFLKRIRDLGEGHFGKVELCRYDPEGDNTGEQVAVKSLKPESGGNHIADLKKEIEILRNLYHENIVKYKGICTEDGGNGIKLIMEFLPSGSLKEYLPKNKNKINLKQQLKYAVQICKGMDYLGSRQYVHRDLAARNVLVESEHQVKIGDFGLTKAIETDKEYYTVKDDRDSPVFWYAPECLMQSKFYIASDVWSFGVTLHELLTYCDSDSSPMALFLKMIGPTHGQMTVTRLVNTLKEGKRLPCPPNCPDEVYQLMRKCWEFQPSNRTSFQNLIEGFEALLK

[6] = target: T1, Eukaryotic translation initiation factor 5B (Homo sapiens, UniProt O60841)
T1 sequence (O60841 whole entry): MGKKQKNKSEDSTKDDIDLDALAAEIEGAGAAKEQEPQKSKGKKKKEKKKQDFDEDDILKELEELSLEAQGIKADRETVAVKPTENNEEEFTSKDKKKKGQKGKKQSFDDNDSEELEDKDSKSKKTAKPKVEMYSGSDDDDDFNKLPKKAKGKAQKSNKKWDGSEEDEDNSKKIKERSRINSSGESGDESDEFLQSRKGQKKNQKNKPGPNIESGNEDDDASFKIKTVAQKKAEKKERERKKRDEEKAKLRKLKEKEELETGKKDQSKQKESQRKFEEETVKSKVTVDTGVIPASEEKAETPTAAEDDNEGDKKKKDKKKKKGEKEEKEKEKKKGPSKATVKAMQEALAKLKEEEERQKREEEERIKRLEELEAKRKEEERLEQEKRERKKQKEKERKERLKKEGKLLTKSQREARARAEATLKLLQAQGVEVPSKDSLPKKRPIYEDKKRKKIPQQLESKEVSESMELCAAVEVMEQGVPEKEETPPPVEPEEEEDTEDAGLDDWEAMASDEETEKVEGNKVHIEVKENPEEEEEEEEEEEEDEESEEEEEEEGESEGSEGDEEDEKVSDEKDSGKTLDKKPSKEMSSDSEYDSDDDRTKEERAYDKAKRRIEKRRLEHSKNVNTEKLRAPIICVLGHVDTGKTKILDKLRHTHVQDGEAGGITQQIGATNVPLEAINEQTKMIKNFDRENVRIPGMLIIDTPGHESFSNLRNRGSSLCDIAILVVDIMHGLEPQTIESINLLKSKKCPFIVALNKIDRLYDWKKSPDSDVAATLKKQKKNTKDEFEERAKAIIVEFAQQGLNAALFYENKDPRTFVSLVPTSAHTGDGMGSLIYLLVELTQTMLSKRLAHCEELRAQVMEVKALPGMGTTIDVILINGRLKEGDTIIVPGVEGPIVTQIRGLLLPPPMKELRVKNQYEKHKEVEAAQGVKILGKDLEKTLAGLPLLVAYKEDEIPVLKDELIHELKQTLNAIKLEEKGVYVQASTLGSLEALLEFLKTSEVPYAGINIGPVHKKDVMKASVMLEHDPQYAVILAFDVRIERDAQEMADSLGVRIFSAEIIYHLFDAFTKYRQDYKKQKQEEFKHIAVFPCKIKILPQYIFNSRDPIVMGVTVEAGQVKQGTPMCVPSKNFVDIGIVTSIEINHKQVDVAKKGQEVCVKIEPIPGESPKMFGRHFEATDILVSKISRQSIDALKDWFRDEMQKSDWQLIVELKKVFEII

[7] = target: T2, Peroxisomal acyl-coenzyme A oxidase 3 (Homo sapiens, UniProt O15254)
T2 sequence (O15254 whole entry): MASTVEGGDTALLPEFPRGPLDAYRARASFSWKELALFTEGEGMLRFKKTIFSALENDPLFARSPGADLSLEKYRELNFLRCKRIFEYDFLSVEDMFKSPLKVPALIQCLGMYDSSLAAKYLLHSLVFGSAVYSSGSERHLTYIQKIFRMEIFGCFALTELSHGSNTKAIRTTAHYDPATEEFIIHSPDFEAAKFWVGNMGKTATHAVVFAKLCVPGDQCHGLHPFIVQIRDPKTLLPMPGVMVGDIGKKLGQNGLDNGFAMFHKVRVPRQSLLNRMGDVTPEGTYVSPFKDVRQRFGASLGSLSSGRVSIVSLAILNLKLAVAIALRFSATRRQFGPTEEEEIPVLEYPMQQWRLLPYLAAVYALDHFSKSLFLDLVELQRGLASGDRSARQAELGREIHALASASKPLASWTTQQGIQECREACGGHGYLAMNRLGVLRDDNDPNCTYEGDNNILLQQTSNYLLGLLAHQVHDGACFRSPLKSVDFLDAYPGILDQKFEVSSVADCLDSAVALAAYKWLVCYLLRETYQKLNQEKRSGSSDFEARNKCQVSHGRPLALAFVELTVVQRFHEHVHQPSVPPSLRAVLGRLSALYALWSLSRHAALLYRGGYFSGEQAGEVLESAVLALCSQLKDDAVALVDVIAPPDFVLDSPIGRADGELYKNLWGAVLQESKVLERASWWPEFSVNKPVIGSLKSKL

[8] = target: T3, Activin receptor type-1 (Homo sapiens, UniProt Q04771)
T3 sequence (Q04771 whole entry): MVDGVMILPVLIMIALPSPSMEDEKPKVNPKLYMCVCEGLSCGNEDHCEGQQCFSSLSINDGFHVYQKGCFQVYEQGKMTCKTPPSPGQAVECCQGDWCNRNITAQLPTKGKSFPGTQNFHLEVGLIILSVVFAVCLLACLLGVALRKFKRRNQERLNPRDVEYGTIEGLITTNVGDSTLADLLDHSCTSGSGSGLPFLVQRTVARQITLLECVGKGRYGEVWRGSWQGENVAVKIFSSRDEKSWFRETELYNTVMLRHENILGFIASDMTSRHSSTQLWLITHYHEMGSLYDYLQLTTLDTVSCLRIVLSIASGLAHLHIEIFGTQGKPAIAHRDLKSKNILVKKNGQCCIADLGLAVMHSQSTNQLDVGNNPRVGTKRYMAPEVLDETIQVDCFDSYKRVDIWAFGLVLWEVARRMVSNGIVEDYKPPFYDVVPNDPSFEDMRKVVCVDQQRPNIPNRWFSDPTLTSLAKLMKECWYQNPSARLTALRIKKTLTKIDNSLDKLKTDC
Further: in the data inactive means no Kd found up to 30 µM.

Casein kinase I isoform epsilon, sequence (P49674 whole entry, canonical isoform): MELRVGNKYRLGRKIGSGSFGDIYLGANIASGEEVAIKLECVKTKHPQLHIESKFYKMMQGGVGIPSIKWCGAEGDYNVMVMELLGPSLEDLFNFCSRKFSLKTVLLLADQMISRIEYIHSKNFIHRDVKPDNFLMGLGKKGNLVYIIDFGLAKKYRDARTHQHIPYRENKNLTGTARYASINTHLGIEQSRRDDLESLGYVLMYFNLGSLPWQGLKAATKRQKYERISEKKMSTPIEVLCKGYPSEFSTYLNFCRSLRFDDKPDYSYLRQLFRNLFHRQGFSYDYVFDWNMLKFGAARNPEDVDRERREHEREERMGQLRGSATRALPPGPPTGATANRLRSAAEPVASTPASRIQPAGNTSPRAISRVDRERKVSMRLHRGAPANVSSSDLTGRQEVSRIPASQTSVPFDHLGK
Dual specificity testis-specific protein kinase 1, sequence (Q15569 whole entry, canonical isoform): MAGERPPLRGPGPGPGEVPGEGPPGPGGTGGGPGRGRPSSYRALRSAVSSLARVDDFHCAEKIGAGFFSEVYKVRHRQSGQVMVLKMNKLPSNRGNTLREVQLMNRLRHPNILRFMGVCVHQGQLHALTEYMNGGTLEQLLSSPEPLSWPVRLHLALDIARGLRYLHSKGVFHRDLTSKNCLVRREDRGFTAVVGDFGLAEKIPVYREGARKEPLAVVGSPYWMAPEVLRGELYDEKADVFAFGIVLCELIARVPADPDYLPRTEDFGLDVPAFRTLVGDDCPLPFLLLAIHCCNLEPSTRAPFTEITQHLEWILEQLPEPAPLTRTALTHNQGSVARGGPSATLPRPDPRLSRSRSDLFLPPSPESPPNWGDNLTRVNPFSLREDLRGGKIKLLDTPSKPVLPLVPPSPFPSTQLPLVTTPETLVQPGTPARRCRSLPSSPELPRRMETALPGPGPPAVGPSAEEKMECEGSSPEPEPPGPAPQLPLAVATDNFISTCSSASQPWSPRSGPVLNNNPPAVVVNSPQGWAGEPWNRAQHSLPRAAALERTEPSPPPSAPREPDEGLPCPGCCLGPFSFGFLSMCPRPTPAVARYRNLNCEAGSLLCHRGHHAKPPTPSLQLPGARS
Activated CDC42 kinase 1, sequence (Q07912 whole entry): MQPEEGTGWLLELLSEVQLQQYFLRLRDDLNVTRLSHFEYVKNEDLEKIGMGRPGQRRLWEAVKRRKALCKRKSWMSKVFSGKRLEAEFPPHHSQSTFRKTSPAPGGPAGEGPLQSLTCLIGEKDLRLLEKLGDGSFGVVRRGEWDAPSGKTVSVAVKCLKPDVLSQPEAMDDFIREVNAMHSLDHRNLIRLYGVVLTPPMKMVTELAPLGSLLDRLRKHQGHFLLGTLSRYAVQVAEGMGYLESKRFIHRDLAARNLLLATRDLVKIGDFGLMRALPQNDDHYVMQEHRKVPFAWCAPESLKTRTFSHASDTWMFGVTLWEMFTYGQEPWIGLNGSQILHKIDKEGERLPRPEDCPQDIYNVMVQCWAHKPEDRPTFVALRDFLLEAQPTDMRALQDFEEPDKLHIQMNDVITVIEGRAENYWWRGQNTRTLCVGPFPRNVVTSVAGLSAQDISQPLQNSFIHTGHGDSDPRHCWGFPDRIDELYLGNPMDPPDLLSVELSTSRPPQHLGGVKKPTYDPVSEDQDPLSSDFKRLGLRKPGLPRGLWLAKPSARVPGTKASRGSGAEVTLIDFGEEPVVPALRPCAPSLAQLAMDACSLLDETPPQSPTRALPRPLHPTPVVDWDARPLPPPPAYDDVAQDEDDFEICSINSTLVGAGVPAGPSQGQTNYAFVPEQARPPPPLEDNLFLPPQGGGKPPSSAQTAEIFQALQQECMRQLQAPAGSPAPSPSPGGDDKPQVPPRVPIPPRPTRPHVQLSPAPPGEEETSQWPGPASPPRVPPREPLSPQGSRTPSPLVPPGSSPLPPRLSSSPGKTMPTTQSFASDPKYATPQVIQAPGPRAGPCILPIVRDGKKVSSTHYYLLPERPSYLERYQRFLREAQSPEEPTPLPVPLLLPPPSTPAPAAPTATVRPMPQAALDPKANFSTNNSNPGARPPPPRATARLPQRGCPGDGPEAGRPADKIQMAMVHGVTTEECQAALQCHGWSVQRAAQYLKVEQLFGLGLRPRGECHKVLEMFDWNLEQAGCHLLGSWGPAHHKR
RAC-alpha serine/threonine-protein kinase, sequence (P31749 whole entry): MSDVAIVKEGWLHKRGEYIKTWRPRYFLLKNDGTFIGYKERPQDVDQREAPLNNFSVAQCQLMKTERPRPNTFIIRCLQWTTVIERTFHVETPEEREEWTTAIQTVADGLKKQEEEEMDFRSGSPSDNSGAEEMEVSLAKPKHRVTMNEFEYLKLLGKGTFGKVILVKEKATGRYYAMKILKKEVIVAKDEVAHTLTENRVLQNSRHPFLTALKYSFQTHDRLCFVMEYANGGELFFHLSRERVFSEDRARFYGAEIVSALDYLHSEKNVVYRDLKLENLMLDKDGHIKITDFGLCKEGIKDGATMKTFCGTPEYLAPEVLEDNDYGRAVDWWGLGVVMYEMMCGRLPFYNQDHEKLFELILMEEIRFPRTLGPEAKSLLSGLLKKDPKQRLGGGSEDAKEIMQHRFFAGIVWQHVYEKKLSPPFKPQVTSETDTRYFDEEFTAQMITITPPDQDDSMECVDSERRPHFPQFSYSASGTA

| SMILES | Kd [1] | Kd [2] | Kd [3] | Kd [4] | Kd [5] | Kd [6] | Kd [7] | Kd [8] |
| --- | --- | --- | --- | --- | --- | --- | --- | --- |
| C[C@H]1CNCCCN1S(=O)(=O)c1cccc2cncc(F)c12 | > 30 µM (inactive) | > 30 µM (inactive) | > 30 µM (inactive) | > 30 µM (inactive) | > 30 µM (inactive) | > 30 µM (inactive) | > 30 µM (inactive) | > 30 µM (inactive) |
| CC(=O)c1cnc2ccc(-c3cc(Cl)c(O)c(Cl)c3)nc2c1N[C@H]1CC[C@H](CN(C)C)CC1 | > 30 µM (inactive) | – | – | > 30 µM (inactive) | > 30 µM (inactive) | > 30 µM (inactive) | > 30 µM (inactive) | 0.222 µM (active) |
| C=CC(=O)N1CCC[C@H](n2c(=O)n(-c3ccc(Oc4ccccc4)cc3)c3c(N)ncnc32)C1 | > 30 µM (inactive) | > 30 µM (inactive) | > 30 µM (inactive) | > 30 µM (inactive) | > 30 µM (inactive) | > 30 µM (inactive) | > 30 µM (inactive) | > 30 µM (inactive) |
| Cc1nc2cc(-c3nn(C(C)C)c4ncnc(N)c34)ccc2o1 | > 30 µM (inactive) | > 30 µM (inactive) | 0.158 µM (active) | > 30 µM (inactive) | > 30 µM (inactive) | > 30 µM (inactive) | > 30 µM (inactive) | 0.04 µM (active) |
| COc1cc(Nc2ncc3c(n2)-c2ccc(Cl)cc2C(c2c(F)cccc2OC)=NC3)ccc1C(=O)O [ALISERTIB] | – | > 30 µM (inactive) | > 30 µM (inactive) | – | > 30 µM (inactive) | > 30 µM (inactive) | > 30 µM (inactive) | > 30 µM (inactive) |
| Cc1nc(NC(=O)N2CCC[C@H]2C(N)=O)sc1-c1ccnc(C(C)(C)C(F)(F)F)c1 [ALPELISIB] | > 30 µM (inactive) | > 30 µM (inactive) | > 30 µM (inactive) | > 30 µM (inactive) | > 30 µM (inactive) | > 30 µM (inactive) | > 30 µM (inactive) | > 30 µM (inactive) |
| Cc1csc(-c2nnc(Nc3ccc(Oc4ncccc4-c4ccnc(N)n4)cc3)c3ccccc23)c1 [AMG-900] | > 30 µM (inactive) | > 30 µM (inactive) | > 30 µM (inactive) | > 30 µM (inactive) | > 30 µM (inactive) | > 30 µM (inactive) | > 30 µM (inactive) | > 30 µM (inactive) |
| O=C(Nc1c[nH]nc1-c1nc2cc(CN3CCOCC3)ccc2[nH]1)NC1CC1 [AT-9283] | > 30 µM (inactive) | > 30 µM (inactive) | > 30 µM (inactive) | > 30 µM (inactive) | 0.368 µM (active) | > 30 µM (inactive) | > 30 µM (inactive) | 0.078 µM (active) |
| C=CC(=O)Nc1cc2c(Nc3ccc(F)c(Cl)c3)ncnc2cc1C#CC(C)(C)N1CCN(C)CC1 [AV-412 FREE BASE] | > 30 µM (inactive) | > 30 µM (inactive) | > 30 µM (inactive) | > 30 µM (inactive) | > 30 µM (inactive) | > 30 µM (inactive) | > 30 µM (inactive) | > 30 µM (inactive) |
| CNC(=O)c1ccccc1Sc1ccc2c(/C=C/c3ccccn3)n[nH]c2c1 [AXITINIB] | – | – | – | – | – | > 30 µM (inactive) | > 30 µM (inactive) | – |
| Cc1cc(C(=O)NOCCO)c(Nc2ccc(I)cc2F)n(C)c1=O [AZD-8330] | > 30 µM (inactive) | – | > 30 µM (inactive) | > 30 µM (inactive) | > 30 µM (inactive) | > 30 µM (inactive) | > 30 µM (inactive) | > 30 µM (inactive) |
| Cn1cnc2c(F)c(Nc3ccc(Br)cc3F)c(C(=O)NOCCO)cc21 [BINIMETINIB] | > 30 µM (inactive) | > 30 µM (inactive) | > 30 µM (inactive) | > 30 µM (inactive) | > 30 µM (inactive) | > 30 µM (inactive) | > 30 µM (inactive) | > 30 µM (inactive) |
| CCn1c(C(=O)N(C2CC2)C2CC2)cc2c3c(ncn3C)c(Nc3cc(C)n(C)n3)nc21 [BMS-911543] | > 30 µM (inactive) | > 30 µM (inactive) | > 30 µM (inactive) | > 30 µM (inactive) | > 30 µM (inactive) | > 30 µM (inactive) | > 30 µM (inactive) | > 30 µM (inactive) |
| COc1cc2ncnc(Oc3cccc(NC(=O)Nc4cc(C(C)(C)C(F)(F)F)on4)c3)c2cc1OC [CEP-32496] | > 30 µM (inactive) | > 30 µM (inactive) | > 30 µM (inactive) | > 30 µM (inactive) | > 30 µM (inactive) | > 30 µM (inactive) | > 30 µM (inactive) | > 30 µM (inactive) |
| CC(C)(C)c1nc(-c2cccc(NS(=O)(=O)c3c(F)cccc3F)c2F)c(-c2ccnc(N)n2)s1 [DABRAFENIB] | – | > 30 µM (inactive) | > 30 µM (inactive) | – | > 30 µM (inactive) | > 30 µM (inactive) | > 30 µM (inactive) | – |
| O=C(Nc1nc2cccc(-c3ccc(CN4CCS(=O)(=O)CC4)cc3)n2n1)C1CC1 [FILGOTINIB] | > 30 µM (inactive) | > 30 µM (inactive) | > 30 µM (inactive) | > 30 µM (inactive) | – | > 30 µM (inactive) | > 30 µM (inactive) | > 30 µM (inactive) |
| C[C@@H](Oc1cc(-n2cnc3ccc(CN4CCN(C)CC4)cc32)sc1C(N)=O)c1ccccc1C(F)(F)F [GSK-461364] | – | – | – | – | – | > 30 µM (inactive) | > 30 µM (inactive) | – |
| Cc1[nH]c(/C=C2\C(=O)Nc3ccccc32)c(C)c1CCC(=O)O [ORANTINIB] | – | > 30 µM (inactive) | – | – | > 30 µM (inactive) | > 30 µM (inactive) | > 30 µM (inactive) | > 30 µM (inactive) |
| NC(=O)c1c(OCc2c(F)cc(Br)cc2F)nsc1NC(=O)NCCCCN1CCCC1 [OSI-632] | – | 1.42 µM (active) | 1.47 µM | – | > 30 µM (inactive) | > 30 µM (inactive) | > 30 µM (inactive) | – |
| O=C(NOCCO)c1cc(CN2OCCCC2=O)c(F)c(F)c1Nc1ccc(I)cc1F [RO-4987655] | – | – | – | – | – | > 30 µM (inactive) | > 30 µM (inactive) | – |
| N#CC[C@H](C1CCCC1)n1cc(-c2ncnc3[nH]ccc23)cn1 [RUXOLITINIB] | – | – | – | – | – | > 30 µM (inactive) | > 30 µM (inactive) | – |
